Where two headings read alike, the source gives them in different places.
How the values were obtained:
MKN-74 = test: cell viability, trypan blue dye exclusion; format: cell-based, human; conditions: 24 hours, single drug or concomitant; bryostatin 1 μM, Mitomycin-C 1 μg/ml, Taxol 50 μM, Cisplatin 50 μM
From the text: Recently our laboratory has studied the effects of combining bryostatin with chemotherapy both in vitro and in vivo against solid tumors. For our in vitro studies, we have been using the human gastric cancer cell line MKN-74. Cytotoxicity has been examined both by cell viability assays using trypan blue dye exclusion assays and by the induction of apoptosis using quantitative fluorescent microscopy.

mammary carcinomas = test: tumor size in mice bearing mammary carcinomas; format: in vivo; conditions: for increase in tumor size by day #6: bryostatin 60 μg/kg followed in 12 hours by Mitomycin-C 3 μg/kg or Taxol 50 μg/kg, preliminary
MKN-74 cells = test: apoptosis by QFM, Hoechst-33258 staining; format: cell-based, human; conditions: for induction of apoptosis (condensed chromatin, 400 cells): MKN-74, UCN-01 7.5 to 10 μM; for Percent Apoptosis: 24 h continuous (single drug) or concomitant, flavopiridol 300 nM, paclitaxel 50 μM, carboplatin
Protocol: (§1) Apoptosis was measured by two different methods: (i) Quantitative fluorescent microscopy (QFM) of nuclear changes induced by apoptosis, as determined by bisbenzimide trihydrochloride (Hoescht-33258) staining of nuclear chromatin (15), and (ii) a terminal deoxynucleotidyl transferase (TdT) assay that labels the 3′-OH ends of DNA fragments produced in apoptotic cells (16). […] MMC was diluted in water. A stock safingol solution was constituted in DMSO and was subsequently diluted at least 1:100 in media for all experiments. […] For QFM determinations, the cells were fixed in 3% paraformaldehyde and incubated at room temperature for 10 minutes. The fixative was removed and the cells were washed with 1×PBS, resuspended in 20 μl 1×PBS containing only 8 μg/ml of bisbenzimide trihydrochloride (Hoechst #33258), and incubated at room temperature for 15 minutes. Aliquots of the cells (10 μl) were placed on glass slides coated with 3-amino-propyl-triethoxysilane, and duplicate samples of 500 cells each were counted and scored for the incidence of apoptotic chromatin condensation using an Olympus BH-2 fluorescence microscope equipped with a BH2-DM2U2UV Dich. Mirror Cube filter (Olympus, Lake Success, N.Y.). For the TdT assays, the ApopTag Kit (Oncor, Gaithersburg, Md.) was used. This method employs a fluoresceinated antidigoxigenin antibody directed against nucleotides of digoxigenin-11-dUTP (d-dUTP) which are catalytically added to the 3-ends fragmented DNA by TdT. Briefly, 1–2×10^6 cells were washed and fixed with 1% paraformaldehyde. The fixed cells were incubated in a reaction mixture containing TdT and d-dUTP for 30 minutes at 37° C. Stop/wash buffer was added, and the cells were resuspended in 100 μl of fluorescinated anti-digoxigenin antibody for 30 minutes at room temperature. The cells were then washed with 0.1% Triton X-100 and counterstained with propidium iodide (PI) solution. Green (d-dUTP labeled DNA strand breaks) and red (PI staining for total DNA content) fluorescence of individual cells were measured on a FACScan flow cytometer (Becton Dickinson, San Jose, Calif.). The resulting bivariate plots enabled the detection of apoptotic events within the cell cycle. The R1 cursor was set using the control specimen to define normal levels of green fluorescence (i.e., basal levels of apoptosis). Cells with fluorescence above the R, cursor were considered apoptotic. The data from 10,000 cells were collected and analyzed using CellFit and LYSYS software (Becton Dickinson).
Apoptosis was again measured by QFM staining.
(§2) Induction of apoptosis was estimated by counting the frequency of condensed nuclear chromatin with Hoechst-33258 stain in duplicate samples of 400 cells.
For these studies apoptosis was measured by quantitative fluorescent microscopy (QFM) determination with bisbenzimide trihydrochloride stain (Hoescht-33258) for condensed nuclear chromatin characteristic of apoptotic cells.
For QFM determinations 500 cells were counted and scored for the incidence of apoptotic chromatin changes under an Olympus BH-2 fluorescence microscope in duplicate samples, ±SD, using a BH2-DM2U2UV Dich. Mirror Cube filter.
To study this further applicants elected to examine five bis-indolylmaleimides with various potencies against PKC. […] The induction of apoptosis was estimated by counting the frequency of condensed nuclear chromatin with Hoechst-33258 stain in duplicate samples of 400 cells.

SK-GT-2 cells = test: apoptosis by QFM, Hoechst-33258 staining; format: cell-based, human; conditions: 24 hours; for percentage of cells undergoing apoptosis (QFM): MMC 5.0 μg/ml
Protocol: (i) Safingol enhances MMC-induced apoptosis: SK-GT-5 cells, which have a mutated p53 gene (9), were treated with safingol in the presence or absence of MMC for 24 hours. For determination of apoptosis SK-GT-5 cells were treated according to one of several conditions: (i) no drug (control) for 24 hours, (ii) Safingol alone (50 μM) for 24 hours. (This concentration represents the highest non-toxic dose of safingol for the SK-GT-5 cells, as determined by cell proliferation studies, and slightly exceeds the safingol concentration (30 μM) which inhibits PKC enzyme activity by 50% in vitro.), (iii) Mitomycin-C alone (2.5 μg/ml) for 24 hours, (iv) Mitomycin-C alone (5 μg/ml) for 24 hours, (v) the combination of safingol (50 μM) and Mitomycin-C (2.5 μg/ml) for 24 hours, (vi) the combination of safingol (50 μM) and Mitomycin-C (5 μg/ml) for 24 hours. Apoptosis was measured by quantitative fluorescent microscopy (QFM) of nuclear changes induced by apoptosis, as determined by bisbenzimide trihydrochloride (Hoescht-33258) staining of condensed nuclear chromatin (3,5). For the QFM duplicate samples of 500 cells each were counted and scored for the incidence of apoptotic chromatin condensation using an Olympus BH-2 fluorescence microscope.
(ii) UCN-01 enhances MMC-induced apoptosis: SK-GT-2 cells, which have a mutation in p53, were treated with increasing concentrations of UCN-01 in the presence or absence of a fixed dose of MMC for 24 hours.
Both UCN-01 and Flavo inhibit PKC. These drugs are cytotoxic to tumor cells and have been reported to induce apoptosis. […] In order to test this hypothesis we elected to treat gastric cancer cells, MKN-74 and SK-GT-2, as well as breast cancer cells, MDA-MB-468, with UCN-01 (7.5 to 10 μM) or Flavo (300 nM) in the presence or absence of MMC (5 μg/ml) or Taxol (50 μM) for 24 hours. Induction of apoptosis was estimated by counting the frequency of condensed nuclear chromatin with Hoechst-33258 stain in duplicate samples of 400 cells.

[1] = system: MDA-MB-468 breast cancer cells; test: apoptosis by QFM, Hoechst-33258 staining; format: cell-based, human; conditions: 24 hours
Protocol: PRELIMINARY STUDIES. […] Apoptosis was measured by quantitative fluorescent microscopy (QFM) of nuclear changes induced by apoptosis, as determined by bisbenzimide trihydrochloride (Hoescht-33258) staining of condensed nuclear chromatin (24). For the QFM duplicate samples of 500 cells each were counted and scored for the incidence of apoptotic chromatin condensation using an Olympus BH-2 fluorescence microscope.
Applicants also tested the PKC inhibitor UCN-01 (27) which is currently in phase I clinical trial at the NCI. In contrast to safingol, which inhibits PKC by binding to its regulatory domain, UCN-01 inhibits PKC at its catalytic domain. Therefore, assessment of the effect of UCN-01 on inducing apoptosis in combination with MMC on MDA-MB-468 was also performed. The QFM method to quantitate apoptosis was again used. The conditions tested were identical to those described above for safingol except UCN-01 (1 μM) was substituted for safingol in all the conditions.
as §2

PKC = conditions: cited from earlier work
esophageal carcinoma = conditions: cited from earlier work
metastatic breast cancer = conditions: cited from earlier work
SK-GT-5 cells = test: apoptosis by quantitative fluorescent microscopy (QFM), Hoechst-33258 staining; format: cell-based, human; conditions: FIG. 4: safingol 50 μM and/or PMA 1 ng/ml for 1 hour, then MMC 5 μg/ml or no drug 24 hours; MMC alone 24 hours
Protocol: as §1
For the QFM duplicate samples of 500 cells each were counted and scored for the incidence of apoptotic chromatin condensation using an Olympus BH-2 fluorescence microscope.

Structure (SMILES): CCC/C=C/C=C/C(=O)O[C@H]1/C(=C/C(=O)OC)C[C@H]2C[C@H]([C@@H](C)O)OC(=O)C[C@H](O)C[C@@H]3C[C@H](OC(C)=O)C(C)(C)[C@](O)(C[C@@H]4C/C(=C/C(=O)OC)C[C@H](/C=C/C(C)(C)[C@]1(O)O2)O4)O3 [bryostatin]
- % of Cells Alive (MKN-74): 85%
- increase in tumor size by day #6 (mammary carcinomas): 80%
- tumor energy and pH (NMR) (mammary carcinomas; first noted 12 to 24 hours after bryostatin): dose-dependent decrease in tumor energy and pH

Structure (SMILES): CN[C@@H]1C[C@H]2O[C@@](C)([C@@H]1OC)n1c3ccccc3c3c4c(c5c6ccccc6n2c5c31)C(=O)N[C@H]4O [UCN-01, 7-OH-staurosporine]
- induction of apoptosis (condensed chromatin, 400 cells) (MKN-74 cells; 24 hours, Taxol 50 μM): 10% ± 2
- percentage of cells undergoing apoptosis (QFM) (SK-GT-2 cells; UCN-01 0.1 μM): 1%±0%
- percentage of cells undergoing apoptosis (QFM) (SK-GT-2 cells; UCN-01 1 μM): 1%±0
- percentage of cells undergoing apoptosis (QFM) (SK-GT-2 cells; UCN-01 10 μM): 21%±1%
- induction of apoptosis (condensed chromatin, 400 cells) (SK-GT-2 cells; UCN-01 7.5 to 10 μM, MMC 5 μg/ml): 18% ± 4
- induction of apoptosis (QFM) ([1]; FIG. 10, UCN-01 1 μM, MMC 5.0 μg/ml): 20%±4
- induction of apoptosis (condensed chromatin, 400 cells) ([1]; MDA-MB-468, UCN-01 7.5 to 10 μM, MMC 5 μg/ml): 20% ± 1
- concentration range that inhibits PKC activity (PKC): nanomolar concentrations

Structure (SMILES): CN(C)C[C@H]1CCn2c(c(C3=C(c4cn(C)c5ccccc45)C(=O)NC3=O)c3ccccc32)C1 [RO 32-0432]
- percentage of cells undergoing apoptosis (QFM) (MKN-74 cells; 24 hours, RO 32-0432 1 μM, MMC): essentially no effect on inducing apoptosis
- percent induction of apoptosis, 6hrs (MKN-74 cells; Ro 2 μM, MMC 1 μg/ml): 0.3%
- percent induction of apoptosis, 12hrs (MKN-74 cells; Ro 2 μM, MMC 1 μg/ml): 1.5%
- percent induction of apoptosis, 24hrs (MKN-74 cells; Ro 2 μM, MMC 1 μg/ml): 1.2%
- percent induction of apoptosis, 48hrs (MKN-74 cells; Ro 2 μM, MMC 1 μg/ml): 5.0%
- percent induction of apoptosis, 72hrs (MKN-74 cells; Ro 2 μM, MMC 1 μg/ml): 13%

Structure (SMILES): N.N.O=C([O-])C1(C(=O)[O-])CCC1.[Pt+2] [carboplatin]
- Percent Apoptosis (MKN-74 cells; MMC 1 μg/ml): 1%±1%
- Percent Apoptosis (MKN-74 cells; MMC 1 μg/ml, listed as Carboplatin): 1% ± 1%

Structure (SMILES): CC(=O)O[C@H]1C(=O)[C@@]2(C)[C@H]([C@H](OC(=O)c3ccccc3)[C@]3(O)C[C@H](OC(=O)[C@H](O)[C@@H](NC(=O)c4ccccc4)c4ccccc4)C(C)=C1C3(C)C)[C@]1(OC(C)=O)CO[C@@H]1C[C@@H]2O [paclitaxel, Tax-11-en-9-one, 5 beta, 20-epoxy-1, 2 alpha, 4, 7 beta, 10 beta, 13 alpha-hexahydroxy-1,4, 10-diacetate, 2 benzoate 13-(alpha-phenylhippurate)]
- Percent Apoptosis (MKN-74 cells; MMC 1 μg/ml): 5.5%±1
- Percent Apoptosis (MKN-74 cells; MMC 1 μg/ml, listed as Paclitaxel): 6% ± 1%
- % APOPTOSIS (MKN-74 cells; 24 hours, FLAVO 300 nM, Taxol 50 μM, MMC 1 μg/ml, single drugs or in combination): 9%
- percent induction of apoptosis, Concomitant (MKN-74 cells; 24 hours, FLAVO 300 nM, Taxol 50 μM, MMC 1 μg/ml, single drugs or together): 9% ± 1%
- induction of apoptosis (condensed chromatin, 400 cells) (MKN-74 cells; 24 hours, Taxol 50 μM): 2% ± 1
- % of Cells Alive (MKN-74): 93%
- increase in tumor size by day #6 (mammary carcinomas): 22%
- major responses (esophageal carcinoma; 250 mg/m^2 by 24 hour infusion every 21 days with G-CSF, 51 patients): 32%
- complete response (esophageal carcinoma; 250 mg/m^2 by 24 hour infusion, 51 patients): 2%
- median survival (esophageal carcinoma; in vivo): 13 months
- response rate (metastatic breast cancer; 96 hour infusion, taxane resistant population): 286
- response rates (metastatic breast cancer; first chemotherapy, 24 hour infusion with or without G-CSF): 56–62%
- response rate (metastatic breast cancer; first line, 250 mg/m^2 over 3 hour infusion): 32%

Structure (SMILES): CCCCCCCCCCCCCC(=O)O[C@@H]1[C@@H](C)[C@@]2(O)[C@@H](C=C(CO)C[C@]3(O)C(=O)C(C)=C[C@@H]23)[C@@H]2C(C)(C)[C@]12OC(C)=O [PMA, 3-phorbol 12-myristate 13-acetate]
- percentage of cells undergoing apoptosis (QFM) (SK-GT-5 cells): essentially no effect on inducing apoptosis

Reference: patent US7045495B2 (Sloan-Kettering Institute for Cancer Research, priority 1996, dated 2006)
